# Reference: ChEMBL document CHEMBL3407361, “Structural exploration, synthesis and pharmacological evaluation of novel 5-benzylidenethiazolidine-2,4-dione derivatives as iNOS inhibitors against inflammatory diseases” (Eur J Med Chem, 2015)
# Calls of active or inactive are those of the source. No cut-off for these calls is given here.
# Assays:
# RAW264.7 [1] = assay: Cytotoxicity against LPS-stimulated mouse RAW264.7 cells after 24 hrs by MTT assay; format: cell-based; conditions: RAW264.7, 24 h
# RAW264.7 [2] = assay: cells; conditions: Mus musculus, RAW264.7, 24 h
# Description: Cytotoxicity against mouse RAW264.7 cells after 24 hrs by MTT assay
# RAW264.7 [3] = assay: Inhibition of LPS-induced nitric oxide production in mouse RAW264.7 cells pre-incubated for 2 hrs before LPS challenge measured 18 hrs post LPS challenge by Griess method; format: functional, cell-based
# Mus musculus = assay: Antiinflammatory activity in ICR mouse assessed as inhibition of carrageenan-induced paw edema at 10 mg/kg, po administered 30 mins before carrageenan challenge measured after 2 hrs; format: functional
# [4] = Solubility in PBS at pH 7.4 assessed as maximum soluble concentration at 25 degC by nephelometry; format: physicochemical
# [5] = Solubility in EtOH assessed as maximum soluble concentration at 25 degC by nephelometry; format: physicochemical; conditions: ethanol
# [6] = molecular target: T1, Nitric oxide synthase, inducible (Mus musculus, UniProt P29477); assay: Inhibition of iNOS-induced nitric oxide production in LPS-stimulated mouse RAW264.7 cells pre-incubated for 2 hrs before LPS challenge by fluorescence assay; format: cell-based
# T1 sequence (P29477 whole entry): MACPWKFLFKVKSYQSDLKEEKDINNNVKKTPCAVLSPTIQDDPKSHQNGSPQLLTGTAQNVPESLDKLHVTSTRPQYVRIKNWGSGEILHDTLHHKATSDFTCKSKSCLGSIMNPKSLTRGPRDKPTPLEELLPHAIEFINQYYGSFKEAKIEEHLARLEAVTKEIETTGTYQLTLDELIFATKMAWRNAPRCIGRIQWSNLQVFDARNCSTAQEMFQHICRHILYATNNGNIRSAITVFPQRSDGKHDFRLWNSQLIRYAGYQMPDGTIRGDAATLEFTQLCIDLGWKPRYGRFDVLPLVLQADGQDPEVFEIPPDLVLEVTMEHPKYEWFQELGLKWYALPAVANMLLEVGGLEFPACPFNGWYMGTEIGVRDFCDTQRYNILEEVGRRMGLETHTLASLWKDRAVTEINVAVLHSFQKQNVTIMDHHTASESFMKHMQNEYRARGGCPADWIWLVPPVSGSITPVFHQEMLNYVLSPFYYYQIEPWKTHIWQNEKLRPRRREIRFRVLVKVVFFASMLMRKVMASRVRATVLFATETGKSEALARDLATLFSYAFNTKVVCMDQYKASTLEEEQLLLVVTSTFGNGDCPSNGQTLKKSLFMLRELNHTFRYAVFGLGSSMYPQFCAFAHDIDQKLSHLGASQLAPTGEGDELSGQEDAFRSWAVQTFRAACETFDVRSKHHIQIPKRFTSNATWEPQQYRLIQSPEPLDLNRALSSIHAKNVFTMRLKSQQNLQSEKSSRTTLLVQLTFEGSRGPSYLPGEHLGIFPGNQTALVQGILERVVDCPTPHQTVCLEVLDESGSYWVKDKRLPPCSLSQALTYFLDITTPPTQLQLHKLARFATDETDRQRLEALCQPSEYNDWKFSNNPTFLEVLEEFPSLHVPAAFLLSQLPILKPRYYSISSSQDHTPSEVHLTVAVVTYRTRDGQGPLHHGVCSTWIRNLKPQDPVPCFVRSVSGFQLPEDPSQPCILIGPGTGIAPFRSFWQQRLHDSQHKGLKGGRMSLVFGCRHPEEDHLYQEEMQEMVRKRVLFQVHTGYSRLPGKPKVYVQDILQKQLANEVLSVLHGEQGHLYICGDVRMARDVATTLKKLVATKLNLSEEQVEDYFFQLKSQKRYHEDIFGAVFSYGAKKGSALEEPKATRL
# RAW264.7 [7] = assay: Inhibition of LPS-induced nitric oxide production in mouse RAW264.7 cells pre-incubated at 100 uM for 2 hrs before LPS challenge measured 18 hrs post LPS challenge by Griess method; format: functional, cell-based
# [8] = Tmax in Sprague-Dawley rat at 5 mg/kg; format: ADME, organism-based; set-up: dose 5 mg/kg; conditions: in vivo
# [9] = AUC (0 to t) in Sprague-Dawley rat at 20 mg/kg, po; format: ADME, organism-based; set-up: dose 20 mg/kg, route oral; conditions: plasma
# [10] = Tmax in Sprague-Dawley rat at 20 mg/kg, po; format: ADME, organism-based; set-up: dose 20 mg/kg, route oral; conditions: in vivo
# Rattus norvegicus = assay: Antiinflammatory activity in CFA-induced Lewis rat arthritis model at 10 mg/kg, po; format: functional, organism-based; set-up: dose 10 mg/kg
# [11] = AUC (0 to t) in Sprague-Dawley rat at 5 mg/kg; format: ADME, organism-based; set-up: dose 5 mg/kg; conditions: plasma
# [12] = Half life in Sprague-Dawley rat at 5 mg/kg; format: ADME, organism-based; set-up: dose 5 mg/kg; conditions: in vivo
# [13] = Cmax in Sprague-Dawley rat at 20 mg/kg, po; format: ADME, organism-based; set-up: dose 20 mg/kg, route oral; conditions: in vivo
# [14] = Oral bioavailability in Sprague-Dawley rat at 20 mg/kg; format: ADME, organism-based; conditions: in vivo
# [15] = Half life in Sprague-Dawley rat at 20 mg/kg, po; format: ADME, organism-based; set-up: dose 20 mg/kg, route oral; conditions: in vivo
# [16] = Cmax in Sprague-Dawley rat at 5 mg/kg; format: ADME, organism-based; set-up: dose 5 mg/kg; conditions: in vivo
IC50 (RAW264.7 [2]) [µM],IC50 (RAW264.7 [3]) [µM],SMILES,IC50 (RAW264.7 [1]) [µM],inhibition (RAW264.7 [7]),other results
> 80,21.3,O=C(COc1ccc(/C=C2\SC(=O)NC2=O)cc1)Nc1cccc(Cl)c1,> 80,,inhibition in vivo at 10 mg/kg (Mus musculus): 37.8%; solubility kinetic [4]: < 500 µg/mL; solubility kinetic [5]: 1500 µg/mL
68.4,> 80,COCN1C(=O)S/C(=C\c2ccc(OCC(=O)Nc3cccc(Cl)c3)cc2)C1=O,72.5,,
> 80,45.6,COc1cc(/C=C2\SC(=O)NC2=O)cc(OC)c1OCC(=O)Nc1cccc(Cl)c1,> 80,Active,IC50 [6]: 25.2 µM; Tmax [8]: 4.2 min; AUC(0-t) [9]: 421 ng·h/mL; Tmax [10]: 2.27 h; Activity (Rattus norvegicus): Active; AUC(0-t) [11]: 387 ng·h/mL; half-life [12]: 7.83 h; Cmax [13]: 46.2 ng/mL; inhibition in vivo at 10 mg/kg (Mus musculus): 26.1%; bioavailability [14]: 27.2%; half-life [15]: 5.9 h; solubility kinetic [4]: < 500 µg/mL; Cmax [16]: 332 ng/mL; solubility kinetic [5]: 3100 µg/mL
,,O=C(COc1ccc(/C=C2\SC(=O)N(CCN3CCCCC3)C2=O)cc1)Nc1cccc(Cl)c1,,Active,
> 80,53.2,CC(CN(C)C)CN1C(=O)S/C(=C\c2ccc(OCC(=O)Nc3cccc(Cl)c3)cc2)C1=O (centres undefined),> 80,Active,IC50 [6]: 32.1 µM
,,O=C(COc1ccc(C=C2C(=O)NC(=S)NC2=O)cc1)Nc1cccc(Cl)c1,,Active,
> 80,40.3,COc1ccc2c(c1)c(CC(=O)O)c(C)n2C(=O)c1ccc(Cl)cc1 [INDOMETHACIN],> 80,,inhibition in vivo at 10 mg/kg (Mus musculus): 33.5%
,,O=C(COc1ccc(/C=C2\SC(=O)N(CCN3CCCC3)C2=O)cc1)Nc1cccc(Cl)c1,,Active,
,,N=C1NC(=O)/C(=C/c2ccc(OCC(=O)Nc3cccc(Cl)c3)cc2)S1,,Active,
,,COC(=O)CCN1C(=O)S/C(=C\c2ccc(OCC(=O)Nc3cccc(Cl)c3)cc2)C1=O,,Active,
> 80,75.4,O=C(COc1ccc(/C=C2\NC(=O)N(Cc3ccccc3)C2=O)cc1)Nc1cccc(Cl)c1,46.3,Active,IC50 [6]: 43.2 µM
,,O=C(COc1ccc(/C=C2\SC(=O)N(CC(=O)Nc3ccccc3)C2=O)cc1)Nc1cccc(Cl)c1,,Active,
,,C#CCN1C(=O)S/C(=C\c2ccc(OCC(=O)Nc3cccc(Cl)c3)cc2)C1=O,,Active,
,,O=C(COc1cccc(/C=C2\SC(=O)NC2=O)c1)Nc1cccc(Cl)c1,,Active,
> 80,68.9,O=C(O)CN1C(=O)/C(=C/c2ccc(OCC(=O)Nc3cccc(Cl)c3)cc2)SC1=S,> 80,Active,IC50 [6]: 47.8 µM
